Biological target: Protein phosphatase methylesterase 1 (Homo sapiens) (UniProt Q9Y570)
Assay: PME-1 inhibition in intact cells, late-stage follow-up, cell-based, fluorescence (AID 463131)
Conditions: fluorescent probe labeling of PME-1, at 0.5 µM, hits give high values

Sequence of Protein phosphatase methylesterase 1 (Homo sapiens) (Q9Y570 whole entry, looked up): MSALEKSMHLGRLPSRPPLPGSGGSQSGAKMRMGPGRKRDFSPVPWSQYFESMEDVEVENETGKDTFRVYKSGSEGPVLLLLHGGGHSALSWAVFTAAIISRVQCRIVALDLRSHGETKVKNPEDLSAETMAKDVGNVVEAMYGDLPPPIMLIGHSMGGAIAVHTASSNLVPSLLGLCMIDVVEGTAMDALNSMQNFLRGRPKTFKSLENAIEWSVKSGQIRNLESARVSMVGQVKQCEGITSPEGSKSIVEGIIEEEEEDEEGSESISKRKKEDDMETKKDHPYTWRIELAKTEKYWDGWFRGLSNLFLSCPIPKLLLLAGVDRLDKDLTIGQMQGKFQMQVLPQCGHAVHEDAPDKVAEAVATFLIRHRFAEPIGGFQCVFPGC

SMILES	inhibition [%]
COC(=O)N1C(=O)[C@](c2ccccc2)(C2CCCCC2)N1C(=O)OC	100
COC(=O)N1C(=O)[C@](c2ccccc2)(C2CCCC2)N1C(=O)OC	100
